Data reported in patent US12180187B2, “1-phenyl-5-azinylpyrazolyl-3-oxyalkyl acids and their use for controlling unwanted plant growth” (BAYER AKTIENGESELLSCHAFT, priority 2019, dated 2024).

Tests used:
VERPE [1] = experiment: Post-emergence action against VERPE, 1.28 kg/ha; assay type: in vivo, Veronica persica; conditions: dosage 1280 g/ha, visual rating about 3 weeks after treatment vs untreated controls (100% = plants died)
Method in brief: (§1)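 Percent activity was scored visually ~3 wk post-spray relative to untreated plants. Treatment was post-emergence at the one-leaf stage using WP/EC in water with 0.5% additive (600 L/ha).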

ALOMY [2] = experiment: Post-emergence action against ALOMY, 1.28 kg/ha; assay type: in vivo, Alopecurus myosuroides; conditions: dosage 1280 g/ha, visual rating about 3 weeks after treatment vs untreated controls
Method in brief: as §1

STEME [3] = experiment: Pre-emergence action against STEME, 1280 g/ha; assay type: in vivo, Stellaria media; conditions: scored visually after about 3 weeks vs untreated controls (100% = plants have died)
Method in brief: (§2)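 Pre-emergence pot test: seeds in sandy loam, soil-covered, sprayed on soil surface (WP/EC, 0.5% additive, 600 L/ha water); greenhouse ~3 wk; visual % effect vs untreated, 0–100%.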

SETVI [4] = experiment: Pre-emergence action against SETVI, 1280 g/ha; assay type: in vivo, Setaria viridis; conditions: visual scoring after about 3 weeks vs untreated controls, 100% = plants have died, 0% = like control plants
Method in brief: as §2

DIGSA [5] = experiment: Pre-emergence action against DIGSA, 1280 g/ha; assay type: in vivo, Digitaria sanguinalis; conditions: visual scoring after about 3 weeks vs untreated controls, 100% = plants have died, 0% = like control plants
Method in brief: as §2

ECHCG [6] = experiment: Pre-emergence action against ECHCG, 1280 g/ha; assay type: in vivo, Echinochloa crus-galli; conditions: visual scoring after about 3 weeks vs untreated controls, 100% = plants have died, 0% = like control plants
Method in brief: as §2

LOLRI [7] = experiment: Pre-emergence action against LOLRI, 1280 g/ha; assay type: in vivo, Lolium rigidum; conditions: visual scoring after about 3 weeks vs untreated controls, 100% = plants have died, 0% = like control plants
Method in brief: as §2

AMARE [8] = experiment: Post-emergence action against AMARE, 1.28 kg/ha; assay type: in vivo, Amaranthus retroflexus; conditions: dosage 1280 g/ha, visual rating about 3 weeks after treatment vs untreated controls (100% = plants died)
Method in brief: as §1

DIGSA [9] = experiment: Post-emergence action against DIGSA, 1.28 kg/ha; assay type: in vivo, Digitaria sanguinalis; conditions: dosage 1280 g/ha, visual rating about 3 weeks after treatment vs untreated controls
Method in brief: as §1

AMARE [10] = experiment: Pre-emergence action against AMARE, 1280 g/ha; assay type: in vivo, Amaranthus retroflexus; conditions: scored visually after about 3 weeks vs untreated controls (100% = plants have died)
Method in brief: as §2

POAAN [11] = experiment: Post-emergence action against POAAN, 1.28 kg/ha; assay type: in vivo, Poa annua; conditions: dosage 1280 g/ha, visual rating about 3 weeks after treatment vs untreated controls
Method in brief: as §1

POAAN [12] = experiment: Pre-emergence action against POAAN, 1280 g/ha; assay type: in vivo, Poa annua; conditions: visual scoring after about 3 weeks vs untreated controls, 100% = plants have died, 0% = like control plants
Method in brief: as §2

LOLRI [13] = experiment: Post-emergence action against LOLRI, 1.28 kg/ha; assay type: in vivo, Lolium rigidum; conditions: dosage 1280 g/ha, visual rating about 3 weeks after treatment vs untreated controls
Experimental: (§3) • a) Seeds of mono- and dicotyledonous weed plants are placed in plastic pots in sandy loam soil (twin sowing with one species each of mono- or dicotyledonous weed plants per pot), covered with soil and cultivated in a greenhouse under controlled growth conditions. 2 to 3 weeks after sowing, the test plants are treated at the one-leaf stage. The compounds of the invention, formulated in the form of wettable powders (WP) or as emulsion concentrates (EC), are applied to the green parts of the plants as aqueous suspension or emulsion with addition of 0.5% additive at a water application rate equivalent to 600 litres per hectare. After the test plants have been kept in the greenhouse under optimum growth conditions for about 3 weeks, the activity of the preparations is rated visually in comparison to untreated controls. For example, 100% activity=the plants have died, 0% activity=like control plants. As shown by the results, compounds of the general formula (I) of the invention, in post-emergence treatment, have very good herbicidal efficacy (90% to 100% herbicidal action) against harmful plants such as Abutilon theophrasti, Digitaria sanguinalis, Echinochloa crus-galli, Matricaria inodora, Poa annua, at an application rate of 1.28 kg of active substance per hectare.

MATIN [14] = experiment: Post-emergence action against MATIN, 1.28 kg/ha; assay type: in vivo, Tripleurospermum inodorum (Matricaria inodora); conditions: dosage 1280 g/ha, visual rating about 3 weeks after treatment vs untreated controls (100% = plants died)
Method in brief: as §1

ABUTH = experiment: Post-emergence action against ABUTH, 1.28 kg/ha; assay type: in vivo, Abutilon theophrasti; conditions: dosage 1280 g/ha, visual rating about 3 weeks after treatment vs untreated controls (100% = plants died)
Experimental: as §3

MATIN [15] = experiment: Pre-emergence action against MATIN, 1280 g/ha; assay type: in vivo, Tripleurospermum inodorum (Matricaria inodora); conditions: scored visually after about 3 weeks vs untreated controls (100% = plants have died)
Method in brief: as §2

STEME [16] = experiment: Post-emergence action against STEME, 1.28 kg/ha; assay type: in vivo, Stellaria media; conditions: dosage 1280 g/ha, visual rating about 3 weeks after treatment vs untreated controls (100% = plants died)
Method in brief: as §1

ECHCG [17] = experiment: Post-emergence action against ECHCG, 1.28 kg/ha; assay type: in vivo, Echinochloa crus-galli; conditions: dosage 1280 g/ha, visual rating about 3 weeks after treatment vs untreated controls
Experimental: as §3

VERPE [18] = experiment: Pre-emergence action against VERPE, 1280 g/ha; assay type: in vivo, Veronica persica; conditions: scored visually after about 3 weeks vs untreated controls (100% = plants have died)
Method in brief: as §2

ALOMY [19] = experiment: Pre-emergence action against ALOMY, 1280 g/ha; assay type: in vivo, Alopecurus myosuroides; conditions: visual scoring after about 3 weeks vs untreated controls, 100% = plants have died, 0% = like control plants
Method in brief: as §2

SETVI [20] = experiment: Post-emergence action against SETVI, 1.28 kg/ha; assay type: in vivo, Setaria viridis; conditions: dosage 1280 g/ha, visual rating about 3 weeks after treatment vs untreated controls
Experimental: as §3

LOLRI [21] = experiment: Pre-emergence action at 320 g/ha against LOLRI; assay type: in vivo, Lolium rigidum; conditions: visual scoring after about 3 weeks vs untreated controls
Excerpt: (§4) b) Seeds of monocotyledonous and dicotyledonous weed plants and crop plants are placed in plastic or organic planting pots and covered with soil. The compounds of the invention, formulated in the form of wettable powders (WP) or as emulsion concentrates (EC), are then applied onto the surface of the covering soil as aqueous suspension or emulsion with addition of 0.5% additive at a water application rate of 600 l/ha (converted). After the treatment, the pots are placed in a greenhouse and kept under good growth conditions for the trial plants. After about 3 weeks, the effect of the preparations is scored visually in comparison with untreated controls as percentages. For example, 100% activity=the plants have died, 0% activity=like control plants. Tables 13 to 26 below show the effects of selected compounds of the general formula (I) on various harmful plants and at an application rate corresponding to 320 g/ha, which were obtained by the experimental procedure mentioned above.

POLCO = experiment: Pre-emergence action at 320 g/ha against POLCO; assay type: in vivo, Fallopia convolvulus (Polygonum convolvulus); conditions: visual scoring after about 3 weeks vs untreated controls
Excerpt: as §4

MATIN [22] = experiment: Pre-emergence action at 320 g/ha against MATIN; assay type: in vivo, Tripleurospermum inodorum (Matricaria inodora); conditions: visual scoring after about 3 weeks vs untreated controls
Excerpt: as §4

DIGSA [23] = experiment: Pre-emergence action at 320 g/ha against DIGSA; assay type: in vivo, Digitaria sanguinalis; conditions: visual scoring after about 3 weeks vs untreated controls
Excerpt: as §4

VERPE [24] = experiment: Pre-emergence action at 320 g/ha against VERPE; assay type: in vivo, Veronica persica; conditions: visual scoring after about 3 weeks vs untreated controls
Excerpt: as §4

AMARE [25] = experiment: Pre-emergence action at 320 g/ha against AMARE; assay type: in vivo, Amaranthus retroflexus; conditions: visual scoring after about 3 weeks vs untreated controls
Excerpt: as §4

VIOTR = experiment: Pre-emergence action at 320 g/ha against VIOTR; assay type: in vivo, Viola tricolor; conditions: dosage 320 g/ha
Excerpt: as §4

ALOMY [26] = experiment: Pre-emergence action at 320 g/ha against ALOMY; assay type: in vivo, Alopecurus myosuroides; conditions: scored visually after about 3 weeks vs untreated controls (100% = plants have died)
Excerpt: as §4

SETVI [27] = experiment: Pre-emergence action at 320 g/ha against SETVI; assay type: in vivo, Setaria viridis; conditions: visual scoring after about 3 weeks vs untreated controls
Excerpt: as §4

AVEFA = experiment: Pre-emergence action at 320 g/ha against AVEFA; assay type: in vivo; conditions: visual scoring after about 3 weeks vs untreated controls
Excerpt: as §4

SMILES	Post-emergence action against VERPE (VERPE [1]) [%]	Post-emergence action against ALOMY (ALOMY [2]) [%]	Pre-emergence action against STEME (STEME [3]) [%]	Pre-emergence action against SETVI (SETVI [4]) [%]	Pre-emergence action against DIGSA (DIGSA [5]) [%]	Pre-emergence action against ECHCG (ECHCG [6]) [%]	Pre-emergence action against LOLRI (LOLRI [7]) [%]	Post-emergence action against AMARE (AMARE [8]) [%]	Post-emergence action against DIGSA (DIGSA [9]) [%]	Pre-emergence action against AMARE (AMARE [10]) [%]	Post-emergence action against POAAN (POAAN [11]) [%]	Pre-emergence action against POAAN (POAAN [12]) [%]	Post-emergence action against LOLRI (LOLRI [13]) [%]	Post-emergence action against MATIN (MATIN [14]) [%]	Post-emergence action against ABUTH (ABUTH) [%]	Pre-emergence action against MATIN (MATIN [15]) [%]	Post-emergence action against STEME (STEME [16]) [%]	Post-emergence action against ECHCG (ECHCG [17]) [%]	Pre-emergence action against VERPE (VERPE [18]) [%]	Pre-emergence action against ALOMY (ALOMY [19]) [%]	further results
O=C(COc1nn(-c2ccccc2F)c(-c2ccc(F)nc2)c1C(F)(F)F)NS(=O)(=O)CC(F)(F)F [Example X-006]	90	100	100	100	100	100	100	100	90	100	100	100	90	100	90	100	100	100	100	–	–
O=C(O)CNC(=O)COc1nn(-c2ccccc2F)c(-c2ccc(F)nc2)c1C(F)(F)F [Example X-026]	90	100	100	100	100	100	100	90	100	100	100	100	90	100	90	100	100	–	100	100	Post-emergence action against SETVI (SETVI [20]): 100%
O=C(COc1nn(-c2ccccc2F)c(-c2cncnc2)c1Br)OCc1ccccc1 [VI-002]	90	–	100	100	–	100	100	90	–	100	100	100	100	100	90	90	90	100	90	–	Post-emergence action against SETVI (SETVI [20]): 90%
Cc1ccc(-n2nc(OCC(=O)O)c(Br)c2-c2ccc(F)nc2)cc1 [VII-067]	–	–	100	100	100	100	100	100	100	100	100	100	100	90	–	100	–	100	100	100	–
O=C(COc1nn(-c2ccccc2F)c(-c2ccc(F)nc2)c1Br)OCC1CCCO1 (centres unmarked) [VII-090]	100	–	100	100	100	100	100	–	100	100	100	100	90	90	–	100	–	100	100	100	–
Cc1ccccc1-n1nc(OCC(=O)O)c(I)c1-c1ccc(F)nc1 [VII-097]	100	100	100	100	100	100	100	–	100	100	100	100	90	90	–	90	90	100	100	–	Post-emergence action against SETVI (SETVI [20]): 90%
CCOC(=O)COc1nn(-c2ccccc2)c(-c2ccc(F)nc2)c1Br [VII-116]	–	–	–	–	–	–	–	–	–	–	–	–	–	–	–	–	–	–	–	–	Pre-emergence action against LOLRI in % (LOLRI [21]): 100%; Pre-emergence action against POLCO in % (POLCO): 90%; Pre-emergence action against MATIN in % (MATIN [22]): 90%; Pre-emergence action against DIGSA in % (DIGSA [23]): 100%; Pre-emergence action against VERPE in % (VERPE [24]): 100%; Pre-emergence action against AMARE in % (AMARE [25]): 100%; Pre-emergence action against VIOTR in % (VIOTR): 90%; Pre-emergence action at 320 g/ha against ALOMY in % (ALOMY [26]): 100%; Pre-emergence action against SETVI in % (SETVI [27]): 100%; Pre-emergence action against AVEFA in % (AVEFA): 90%
COC(=O)C(C)Oc1nn(-c2ccccc2)c(-c2ccnc(F)c2)c1Cl (centres unmarked) [VIII-007]	100	–	90	100	90	100	100	100	90	100	100	100	100	90	90	90	100	90	100	–	–
